Test results reported in patent US20100120700A1, “METHODS AND COMPOSITIONS FOR TREATING CERVICAL CANCER” (priority 2000, published 2010).
“And” between values parts separate entries of the source, which are not always exact repeats. Equal values may be shown once.

Tests used:
Experiment in all cases: G assay PDZ-PL binding
[1] = molecular target: T1, DLG1 domain 1 (Homo sapiens, UniProt Q12959, R278Q); conditions: vs GST only well, peptide 10 uM, protein 5
T1 construct: made in house; host or cells: E. coli (DH5alpha, BL21 or JM109)
Description: (§1) (1) A PDZ-domain polypeptide is bound to a surface, e.g. a protein binding surface. In a preferred embodiment, a GST/PDZ fusion protein containing one or more PDZ domains is bound to a polystyrene 96-well plate. […] In one embodiment, the GST/PDZ fusion protein is bound via an anti-GST antibody that is coated onto the 96-well plate. Adequate binding to the plate can be achieved when: • a. 100 uL per well of 5 ug/mL goat anti-GST polyclonal antibody (Pierce) in PBS is added to a polystyrene 96-well plate (e.g., Num Polysorb) at 4° C. for 12 hours. • b. The plate is blocked by addition of 200 uL per well of PBS/BSA for 2 hours at 4° C. • c. The plate is washed 3 times with PBS. • d. 50 uL per well of 5 ug/mL GST/PDZ fusion protein) or, as a negative control, GST polypeptide alone (i.e. not a fusion protein) in PBS/BSA is added to the plate for 2 hours at 4° C. • e. The plate is again washed 3 times with PBS. […]
(§2) (3) The binding of the biotinylated peptide to the GST/PDZ fusion protein surface can be detected using a variety of methods and detectors known to one of skill in the art. In one embodiment, 100 uL per well of 0.5 ug/mL streptavidin-horse radish peroxidase (HRP) conjugate dissolved in BSA/PBS is added and allowed to react for 20 minutes at 4° C. The plate is then washed 5 times with 50 mM Tris pH 8.0 containing 0.2% Tween 20, and developed by addition of 100 uL per well of HRP-substrate solution (TMB, Dako) for 20 minutes at room temperature (RT). The reaction of the HRP and its substrate is terminated by addition of 100 uL per well of 1M sulfuric acid, and the absorbance of each well of the plate is read at 450 nm.
(§3) (4) Specific binding of a PL peptide and a PDZ domain polypeptide is determined by comparing the signal from the well(s) in which the PL peptide and PDZ domain polypeptide are combined, with the background signal(s). The background signal is the signal found in the negative control(s). Typically a specific or selective reaction will be at least twice background signal, more typically more than 5 times background, and most typically 10 or more times the background signal. In addition, a statistically significant reaction will involve multiple measurements of the reaction with the signal and the background differing by at least two standard errors, more typically four standard errors, and most typically six or more standard errors. Correspondingly, a statistical test (e.g. a T-test) comparing repeated measurements of the signal with-repeated measurements of the background will result in a p-value<0.05, more typically a p-value<0.01, and most typically a p-value<0.001 or less. As noted, in an embodiment of the “G” assay, the signal from binding of a given PL peptide to immobilized (surface bound) GST polypeptide alone is one suitable negative control (sometimes referred to as “B 1”). Because all measurement are done in multiples (i.e. at least duplicate) the arithmetic mean (or, equivalently, average.) of several measurements is used in determining the binding, and the standard error of the mean is used in determining the probable error in the measurement of the binding. The standard error of the mean of N measurements equals the square root of the following: the sum of the squares of the difference between each measurement and the mean, divided by the product of (N) and (N−1). Thus, in one embodiment, specific binding of the PDZ protein to the platebound peptide is determined by comparing the mean signal (“mean S”) and standard error of the signal (“SE”) for a particular PL-PDZ combination with the mean B1.
(§4) For convenience, the assay conditions described in this section are referred to as the “G’ assay” and the “G” assay,” with the specific conditions described in the preceding section on G assays being referred to as the “G° assay.” The “G′ assay” is identical to the “G° assay” except at step (2) the peptide concentration is 10 uM instead of 20 uM. […]

[2] = molecular target: T2, TIP 43 #264.1 domain 1 (Homo sapiens, UniProt Q13884); conditions: vs GST only well, peptide 10 uM, protein 5
T2 construct: made in house; host or cells: E. coli (DH5alpha, BL21 or JM109)
T2 sequence (Q13884 106-201): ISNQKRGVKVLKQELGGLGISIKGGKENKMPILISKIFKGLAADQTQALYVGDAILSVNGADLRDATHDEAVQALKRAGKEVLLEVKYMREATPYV
Description: as §1, §2, §3, §4

[3] = molecular target: T3, NeDLG domain 2 (Homo sapiens, UniProt Q92796); conditions: vs GST only well, peptide 10 uM, protein 5
T3 construct: made in house; host or cells: E. coli (DH5alpha, BL21 or JM109)
T3 sequence (Q92796 with tags, fused parts or gaps): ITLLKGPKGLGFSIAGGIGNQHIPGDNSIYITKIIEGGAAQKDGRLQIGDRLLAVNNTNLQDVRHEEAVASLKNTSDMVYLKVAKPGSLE
Description: as §1, §2, §3, §4

[4] = molecular target: T4, NeDLG domain 1 (Homo sapiens, UniProt Q92796, D190E); conditions: peptide 10 uM, protein 5
T4 construct: made in house; host or cells: E. coli (DH5alpha, BL21 or JM109)
T4 sequence (Q92796 with tags, fused parts or gaps D190E): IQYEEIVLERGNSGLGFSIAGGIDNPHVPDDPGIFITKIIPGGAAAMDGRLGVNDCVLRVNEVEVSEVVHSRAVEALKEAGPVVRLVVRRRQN
Description: as §1, §2, §3, §4

[5] = molecular target: T5, SITAC-18 domain 1 (Homo sapiens, UniProt Q9H190); conditions: peptide 10 uM, protein 5
T5 construct: made in house; host or cells: E. coli (DH5alpha or BL-21)
T5 sequence (Q9H190 104-195): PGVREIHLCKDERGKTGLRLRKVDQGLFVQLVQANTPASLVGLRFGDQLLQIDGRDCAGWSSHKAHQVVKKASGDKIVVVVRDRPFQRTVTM
Description: as §1, §2, §3, §4

[6] = molecular target: T6, KIAA0380 #25.8 domain 1 (Homo sapiens, UniProt O15085); conditions: peptide 10 uM, protein 5
T6 construct: made in house; host or cells: E. coli (DH5alpha, BL21 or JM109), vector pGEX-3X
T6 sequence (O15085 45-123): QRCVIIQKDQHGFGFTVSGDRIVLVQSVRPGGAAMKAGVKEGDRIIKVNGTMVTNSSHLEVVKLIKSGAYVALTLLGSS
Description: as §1, §2, §3, §4

[7] = molecular target: T7, PSD95 domain 1 (Homo sapiens, UniProt P78352); conditions: peptide 10 uM, protein 5
T7 construct: made in house; host or cells: E. coli (DH5alpha, BL21 or JM109), vector pGEX-3X
T7 sequence (P78352 62-156): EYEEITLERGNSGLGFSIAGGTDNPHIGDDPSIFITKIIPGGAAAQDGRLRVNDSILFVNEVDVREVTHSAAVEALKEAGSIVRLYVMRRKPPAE
Description: as §1, §2, §3, §4

[8] = molecular target: T8, KIAA0147 domain 1 (Homo sapiens, UniProt Q14160); conditions: A450 nm, peptide 10 uM, protein 5
T8 construct: made in house; host or cells: E. coli (DH5alpha, BL21 or JM109)
T8 sequence (Q14160 with tags, fused parts or gaps): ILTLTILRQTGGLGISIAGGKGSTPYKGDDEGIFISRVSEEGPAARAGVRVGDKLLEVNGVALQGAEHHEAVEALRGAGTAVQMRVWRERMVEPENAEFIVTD
Description: as §1, §2, §3, §4

[9] = molecular target: T9, HEMBA 1003117 #193.3 domain 1 (Homo sapiens, UniProt Q96JH8); conditions: peptide 10 uM, protein 5
T9 construct: made in house; host or cells: E. coli (DH5alpha, BL21 or JM109)
T9 sequence (Q96JH8 969-1068): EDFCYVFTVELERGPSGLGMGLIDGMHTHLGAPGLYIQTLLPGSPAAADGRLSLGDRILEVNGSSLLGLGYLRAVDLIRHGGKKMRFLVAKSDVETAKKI
Description: as §1, §2, §3, §4

[10] = molecular target: T10, Magi2 domain 1 (Homo sapiens, UniProt Q86UL8); conditions: vs GST only well, peptide 10 uM, protein 5
T10 construct: made in house; host or cells: E. coli (DH5alpha, BL21 or JM109)
T10 sequence (Q86UL8 408-511): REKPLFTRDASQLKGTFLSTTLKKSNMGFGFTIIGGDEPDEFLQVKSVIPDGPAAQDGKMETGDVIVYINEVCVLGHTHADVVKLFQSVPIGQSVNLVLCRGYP
Description: as §1, §2, §3, §4

[11] = molecular target: T11, Magi2 domain 3 (Homo sapiens, UniProt Q86UL8); conditions: peptide 10 uM, protein 5
T11 construct: made in house; host or cells: E. coli (DH5alpha or BL-21)
T11 sequence (Q86UL8 with tags, fused parts or gaps): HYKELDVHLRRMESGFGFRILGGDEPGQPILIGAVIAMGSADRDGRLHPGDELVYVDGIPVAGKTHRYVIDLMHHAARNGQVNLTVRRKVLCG
Description: as §1, §2, §3, §4

[12] = molecular target: T12, HEMBA 1003117 #226.2 domain 1 (Homo sapiens, UniProt Q96JH8); conditions: peptide 10 uM, protein 5
T12 construct: made in house; host or cells: E. coli (DH5alpha, BL21 or JM109)
T12 sequence (Q96JH8 969-1068): as the sequence (Q96JH8 969-1068) above
Description: as §1, §2, §3, §4

[13] = molecular target: T13, PTPL1 domain 2 (Homo sapiens, UniProt Q12923); conditions: peptide 10 uM, protein 5
T13 construct: made in house; host or cells: E. coli (DH5alpha, BL21 or JM109)
T13 sequence (Q12923 1364-1458): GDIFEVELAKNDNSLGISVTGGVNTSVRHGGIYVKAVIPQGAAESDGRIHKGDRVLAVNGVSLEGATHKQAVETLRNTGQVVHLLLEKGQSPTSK
Description: as §1, §2, §3, §4

[14] = molecular target: T14, PAR3 #182.1 domain 3 (Homo sapiens, UniProt Q8TEW0); conditions: peptide 10 uM, protein 5
T14 construct: made in house; host or cells: E. coli (DH5alpha or BL-21)
T14 sequence (Q8TEW0 579-681): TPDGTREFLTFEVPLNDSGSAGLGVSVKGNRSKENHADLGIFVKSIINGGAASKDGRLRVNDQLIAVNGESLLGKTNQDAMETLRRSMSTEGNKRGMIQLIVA
Description: as §1, §2, §3, §4

## 20 mer peptide corresponding to the C-terminus of HPV16 E6 (PDZ ligand), biotinylated in binding assays; ends SSRTRRETQL (SEQ ID NO: 13) [HPV E6 #16]
[1]
  OD S/N: 2.98 and 4.18
[2]
  OD S/N: 8.50 and 8.76
[3]
  OD S/N: 2.20 and 3.99
[4]; A450 nm
  Ave OD: 0.5165
[4]; vs GST only well
  OD S/N: 1.98
[5]; A450 nm
  Ave OD: 0.3975
[5]; vs GST only well
  OD S/N: 1.63
[6]; A450 nm
  Ave OD: 0.603
[6]; vs GST only well
  OD S/N: 3.58
[7]; A450 nm
  Ave OD: 0.942
[7]; vs GST only well
  OD S/N: 4.81
[8]
  Ave OD: 2.1465 and 3.764
[9]; A450 nm
  Ave OD: 0.517
[9]; vs GST only well
  OD S/N: 2.20
[10]
  OD S/N: 11.59 and 7.23
[11]; A450 nm
  Ave OD: 0.4165 and 0.359
[11]; vs GST only well
  OD S/N: 1.98 and 1.65
[12]; A450 nm
  Ave OD: 0.36 and 0.477
[12]; vs GST only well
  OD S/N: 1.66 and 2.27
[13]; A450 nm
  Ave OD: 0.348
[13]; vs GST only well
  OD S/N: 1.80
[14]; A450 nm
  Ave OD: 0.445
[14]; vs GST only well
  OD S/N: 2.07
